The target in series [1] is T1, Serine/threonine-protein kinase mTOR (Homo sapiens, UniProt P42345). Description: Inhibition of mTOR kinase in human HeLa cells by ELISA. The class given is cell-based. In general terms: An ELISA detects its analyte on a solid surface through an enzyme-linked reagent.
For series [2], the target named is Phosphatidylinositol 4,5-bisphosphate 3-kinase catalytic subunit alpha isoform (Homo sapiens, UniProt P42336). In words: Inhibition of PI3Kalpha kinase.
A short description of series [3]: Growth inhibition of human U87MG cells. The class given is functional, U-87MG ATCC. The settings on record: U-87 MG.
The target of series [4] is T1, Serine/threonine-protein kinase mTOR. In words: Inhibition of mTOR kinase in human HeLa cells at 10 uM by ELISA. The class given is cell-based. The arrangement: scale not given: the % may be the effect or the level left.
The subject of another series is MDR1 (human). Description: Apparent permeability from apical to basolateral side in MDCK2 cells expressing human MDR1 at 10 uM. The class given is ADME, cell-based, Canis lupus familiaris, MDCK-II. The settings on record: dog, MDCK-MDR1.
Series [5] deals with Serine-protein kinase ATM (Homo sapiens, UniProt Q13315). In words: Inhibition of ATM.
Chain of Serine-protein kinase ATM (Q13315 whole entry): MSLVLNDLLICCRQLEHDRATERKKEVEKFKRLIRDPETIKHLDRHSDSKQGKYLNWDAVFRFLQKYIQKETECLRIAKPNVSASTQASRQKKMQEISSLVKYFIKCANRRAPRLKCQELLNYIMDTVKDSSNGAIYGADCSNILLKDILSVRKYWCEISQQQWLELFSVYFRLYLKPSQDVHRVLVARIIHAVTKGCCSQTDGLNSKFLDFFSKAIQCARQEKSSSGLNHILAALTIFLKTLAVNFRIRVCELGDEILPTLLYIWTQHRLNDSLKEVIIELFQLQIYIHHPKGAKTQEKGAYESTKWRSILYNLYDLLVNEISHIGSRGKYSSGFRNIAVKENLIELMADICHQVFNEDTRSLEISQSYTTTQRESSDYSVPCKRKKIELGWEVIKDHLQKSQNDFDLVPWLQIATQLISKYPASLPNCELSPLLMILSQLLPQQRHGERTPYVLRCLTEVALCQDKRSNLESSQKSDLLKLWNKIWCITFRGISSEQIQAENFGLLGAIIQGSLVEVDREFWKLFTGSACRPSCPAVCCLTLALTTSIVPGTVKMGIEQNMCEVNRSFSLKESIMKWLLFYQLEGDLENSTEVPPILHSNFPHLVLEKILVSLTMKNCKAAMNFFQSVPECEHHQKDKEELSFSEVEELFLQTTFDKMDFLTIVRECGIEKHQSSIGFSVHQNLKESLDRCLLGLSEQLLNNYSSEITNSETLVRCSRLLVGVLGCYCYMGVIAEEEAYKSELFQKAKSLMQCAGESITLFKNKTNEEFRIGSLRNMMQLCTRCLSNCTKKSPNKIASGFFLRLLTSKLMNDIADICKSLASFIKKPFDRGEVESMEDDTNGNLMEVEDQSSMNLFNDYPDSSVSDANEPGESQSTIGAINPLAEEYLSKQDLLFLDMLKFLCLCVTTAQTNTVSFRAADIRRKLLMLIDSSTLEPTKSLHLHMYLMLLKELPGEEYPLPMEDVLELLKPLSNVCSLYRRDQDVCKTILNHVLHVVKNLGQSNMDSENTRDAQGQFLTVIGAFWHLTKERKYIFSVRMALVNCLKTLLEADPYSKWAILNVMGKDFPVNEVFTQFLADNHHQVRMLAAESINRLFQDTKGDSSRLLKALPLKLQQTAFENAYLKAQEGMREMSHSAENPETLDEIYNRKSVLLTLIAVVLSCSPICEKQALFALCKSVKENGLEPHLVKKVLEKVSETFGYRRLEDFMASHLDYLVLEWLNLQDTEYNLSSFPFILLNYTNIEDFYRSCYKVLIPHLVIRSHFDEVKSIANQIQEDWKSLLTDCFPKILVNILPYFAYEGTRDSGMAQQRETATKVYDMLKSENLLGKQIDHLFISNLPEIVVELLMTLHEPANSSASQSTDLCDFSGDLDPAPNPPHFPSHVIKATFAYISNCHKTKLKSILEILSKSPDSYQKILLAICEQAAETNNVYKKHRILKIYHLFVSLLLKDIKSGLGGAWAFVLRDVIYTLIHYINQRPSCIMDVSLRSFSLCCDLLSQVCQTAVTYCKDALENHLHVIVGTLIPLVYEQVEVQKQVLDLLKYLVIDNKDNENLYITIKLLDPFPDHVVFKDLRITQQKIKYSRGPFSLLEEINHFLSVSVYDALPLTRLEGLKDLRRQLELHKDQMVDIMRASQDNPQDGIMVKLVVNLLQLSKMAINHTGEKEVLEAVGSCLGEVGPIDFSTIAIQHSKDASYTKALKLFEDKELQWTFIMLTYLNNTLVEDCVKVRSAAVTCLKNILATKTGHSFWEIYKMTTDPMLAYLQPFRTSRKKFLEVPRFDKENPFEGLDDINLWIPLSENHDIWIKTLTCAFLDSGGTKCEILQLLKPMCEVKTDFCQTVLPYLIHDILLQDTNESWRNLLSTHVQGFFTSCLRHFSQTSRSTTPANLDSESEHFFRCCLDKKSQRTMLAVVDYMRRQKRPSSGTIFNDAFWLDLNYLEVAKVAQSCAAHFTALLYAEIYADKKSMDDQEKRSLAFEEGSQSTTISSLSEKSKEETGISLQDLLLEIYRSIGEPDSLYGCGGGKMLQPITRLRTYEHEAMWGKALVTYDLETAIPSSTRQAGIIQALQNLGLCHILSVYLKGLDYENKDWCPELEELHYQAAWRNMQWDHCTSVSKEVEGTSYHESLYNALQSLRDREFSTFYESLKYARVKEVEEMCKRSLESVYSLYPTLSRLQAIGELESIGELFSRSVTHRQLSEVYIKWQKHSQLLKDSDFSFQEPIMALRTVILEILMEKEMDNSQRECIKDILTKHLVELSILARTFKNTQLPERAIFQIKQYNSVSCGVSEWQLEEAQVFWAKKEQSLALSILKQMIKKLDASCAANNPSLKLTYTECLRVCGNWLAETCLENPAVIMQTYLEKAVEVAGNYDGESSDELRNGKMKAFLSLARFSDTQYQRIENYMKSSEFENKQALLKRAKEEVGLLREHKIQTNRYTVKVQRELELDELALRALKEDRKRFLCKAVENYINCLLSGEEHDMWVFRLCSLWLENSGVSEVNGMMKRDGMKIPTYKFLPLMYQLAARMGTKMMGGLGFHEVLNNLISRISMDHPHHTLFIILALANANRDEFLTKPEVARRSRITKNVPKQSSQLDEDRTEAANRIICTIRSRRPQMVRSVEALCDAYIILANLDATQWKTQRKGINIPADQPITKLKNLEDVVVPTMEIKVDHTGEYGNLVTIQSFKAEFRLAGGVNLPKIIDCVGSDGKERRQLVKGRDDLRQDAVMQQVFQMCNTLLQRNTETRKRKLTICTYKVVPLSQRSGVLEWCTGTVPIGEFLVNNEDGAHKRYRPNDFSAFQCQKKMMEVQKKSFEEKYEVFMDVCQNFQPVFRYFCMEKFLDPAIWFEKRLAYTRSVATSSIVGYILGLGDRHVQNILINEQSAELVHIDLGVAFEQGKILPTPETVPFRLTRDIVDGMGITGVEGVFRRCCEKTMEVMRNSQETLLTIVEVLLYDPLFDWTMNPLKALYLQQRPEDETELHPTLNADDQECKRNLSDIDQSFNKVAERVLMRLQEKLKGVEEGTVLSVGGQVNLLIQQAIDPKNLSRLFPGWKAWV

Where only a bound is given, the exact number is not on record here.

Chain of Phosphatidylinositol 4,5-bisphosphate 3-kinase catalytic subunit alpha isoform (P42336 whole entry, canonical isoform): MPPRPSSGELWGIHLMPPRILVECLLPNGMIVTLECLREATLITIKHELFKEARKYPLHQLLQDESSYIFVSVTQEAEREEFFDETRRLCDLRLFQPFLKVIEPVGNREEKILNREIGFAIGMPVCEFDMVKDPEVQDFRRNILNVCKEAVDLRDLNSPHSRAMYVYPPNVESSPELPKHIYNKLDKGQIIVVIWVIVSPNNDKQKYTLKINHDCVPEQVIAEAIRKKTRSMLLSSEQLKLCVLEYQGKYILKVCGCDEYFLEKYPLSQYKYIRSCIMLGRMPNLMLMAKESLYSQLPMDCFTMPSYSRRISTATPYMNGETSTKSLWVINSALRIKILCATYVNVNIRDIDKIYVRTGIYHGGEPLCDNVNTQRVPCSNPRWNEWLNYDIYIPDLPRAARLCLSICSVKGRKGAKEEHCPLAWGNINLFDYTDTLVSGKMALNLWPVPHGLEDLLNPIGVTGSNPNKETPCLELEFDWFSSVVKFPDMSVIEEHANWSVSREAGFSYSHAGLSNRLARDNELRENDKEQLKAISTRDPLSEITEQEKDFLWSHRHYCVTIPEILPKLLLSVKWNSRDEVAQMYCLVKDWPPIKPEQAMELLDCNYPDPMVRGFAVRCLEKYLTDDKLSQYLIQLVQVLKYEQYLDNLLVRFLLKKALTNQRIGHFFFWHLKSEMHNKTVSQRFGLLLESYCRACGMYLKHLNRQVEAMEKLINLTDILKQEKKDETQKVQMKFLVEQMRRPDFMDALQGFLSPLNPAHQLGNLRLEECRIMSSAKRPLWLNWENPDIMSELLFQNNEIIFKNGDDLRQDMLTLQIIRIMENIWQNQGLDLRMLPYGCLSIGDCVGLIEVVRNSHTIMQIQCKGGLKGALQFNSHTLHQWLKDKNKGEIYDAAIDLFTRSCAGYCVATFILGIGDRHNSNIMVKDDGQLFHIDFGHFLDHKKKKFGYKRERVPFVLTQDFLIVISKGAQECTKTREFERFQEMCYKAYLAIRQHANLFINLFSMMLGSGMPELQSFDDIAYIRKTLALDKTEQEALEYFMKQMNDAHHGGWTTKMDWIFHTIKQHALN

One may read the IC50 as the concentration that inhibits the measured activity by half. As a reminder, the GI50 is the concentration that inhibits growth by half. On to `COc1cc(-c2ccc(-c3cc(N4CCOCC4)nc(N4CCOCC4)n3)o2)cc(OC)c1O`, for which the values for the IC50 in series [1] and in series [2] were 23 nM and over 10 µM, respectively. Besides, it took 16 µM to inhibit growth in series [3] by half (GI50). Consider `COc1cc(-c2ccc(-c3ccnc(N4CCOCC4)n3)s2)cc(OC)c1O`, for which the Activity in series [4] was under 50%. `COc1cc(-c2cn(-c3nc(N4CCOCC4)nc(N4CCOCC4)n3)cn2)cc(OC)c1O`: the 50% inhibitory concentration (IC50) in series [2] was over 10 µM. In series [3], this compound displayed a concentration for 50% growth inhibition (GI50) of 24 µM.

As for `c1cc2cc(-c3ccc(-c4cc(N5CCOCC5)nc(N5CCOCC5)n4)o3)ccc2[nH]1`, in series [1], the IC50 was over 10000 nM. On to `COc1cc(-c2csc(-c3ccnc(N4CCOCC4)n3)n2)cc(OC)c1O`, for which the IC50 was 180 nM in series [1] and over 10 µM in series [2]. For the same compound, the GI50 in series [3] stood at 21 µM. For orientation: Papp A→B means how fast a substance crosses the layer from the apical side. Consider `OCc1cccc(-c2ccc(-c3cc(N4CCOCC4)nc(N4CCOCC4)n3)o2)c1`, for which the Papp A→B at 10 µM with MDR1 (human) is 33 ×10⁻⁶ cm/s. `COc1cc(/C=N/Nc2nc(N3CCOCC3)nc(N3CCOCC3)n2)cc(OC)c1O`: the values for the IC50 in series [1], in series [2] and in series [5] were 270 nM, over 10 µM and over 10 µM, respectively. On to `COc1cc(-c2cnn(-c3ccnc(N4CCOCC4)n3)c2)cc(OC)c1O`, for which, in series [4], the Activity is under 50%. As to `Oc1cccc(-c2ccc(-c3cc(N4CCOCC4)nc(N4CCOCC4)n3)o2)c1`, the apical-to-basolateral permeability (Papp A→B) at 10 µM in the series on MDR1 (human) was 2.2 ×10⁻⁶ cm/s. On to `COc1cc(-c2ccc(-c3ccnc(N4CCOCC4)n3)o2)cc(OC)c1O`, for which the IC50 in series [1] was 52 nM; in series [2], over 10 µM. The same compound yielded a GI50 in series [3] of 3.7 µM.

For the origin of these results see ChEMBL document CHEMBL1156040, “Identification and optimisation of novel and selective small molecular weight kinase inhibitors of mTOR” (Bioorg Med Chem Lett, 2009).
